From patent publication US20110046235A1, “PRODUCTS COMPRISING, AND USES OF, DECARBOXYLATED PHENOLIC ACIDS DERIVED FROM CHLOROGENIC ACIDS OF COFFEE” (NESTEC S.A., priority 2008, published 2011)

What was measured:
[1] = test system: PGE2 production in HT-29 cells; assay: Prostaglandin E2 formation assay; type: cell-based, human; details: 15 h then 6 h with TNF-α 10 ng/ml
Procedure: Human colon HT-29 cells were treated with 4-vinylcatechol for 15 h followed by a co-incubation of 6 h together with a pro-inflammatory agent TNF-α (10 ng/ml). Analysis of the PGE2 production in HT-29 cells was determined using a competitive enzyme immunoassay (EIA) (Cavin et al., BBRC 327, 742-49, 2005).

Nrf2 = assay: Antioxidant Responsive Element (ARE) luciferase assay; type: cell-based, human; details: 24 h, AREc 32 (MCF7) cells
Text: The pGL-8×ARE which contains eight copies of the ARE present in rat glutathione-S-transferase A2 (GSTA2) along with the pcDNA3.1 plasmid containing the neomycin selectable marker was stably transfected into human MCF7 cells (Wang et al., Cancer Res. 66, 10983-10994, 2006). ARE (antioxidant-responsive element) is the binding site of the transcription factor Nrf2 which regulates the genes involved in detoxification and endogenous defence against oxidative stress. The plasmid pGL-8×ARE contains a luciferase gene downstream of the eight Nrf2 binding sites that allows monitoring Nrf2 activity. The AREc 32 cells were seeded in 96-well microtiter plates in DMEM growth medium. After treatment with 4-vinylcatechol for 24 h firefly luciferase activity was determined.

C=Cc1ccc(O)c(O)c1 [4-vinylcatechol]
PGE2 formation ([1]; 4-vinylcatechol 3.13 μg/ml): 58 % of control | PGE2 formation ([1]; 4-vinylcatechol 6.25 μg/ml): 46 % of control | PGE2 formation ([1]; 4-vinylcatechol 9.38 μg/ml): 21 % of control | PGE2 formation ([1]; 4-vinylcatechol 15.63 μg/ml): 12 % of control | PGE2 formation ([1]; 4-vinylcatechol 31.25 μg/ml): 5 % of control | PGE2 formation ([1]; 4-vinylcatechol 62.5 μg/ml): 2 % of control | firefly luciferase activity (induction of Nrf2 activity) (Nrf2; 4-vinylcatechol 200 μg/ml): 16 AU | firefly luciferase activity (induction of Nrf2 activity) (Nrf2; 4-vinylcatechol 400 μg/ml): 41 AU | firefly luciferase activity (induction of Nrf2 activity) (Nrf2; 4-vinylcatechol 600 μg/ml): 22 AU
